Measurements reported in patent publication US9260429B2, “Pyrido[3,4-B]indoles and methods of use” (Medivation Technologies, Inc., priority 2008, dated 2016).
Read-outs that look alike come from different tables or passages of the source.

Experiments:
[1] = target: T1, human recombinant histamine H1 receptor (Homo sapiens, UniProt P35367); assay: Histamine H1 radioligand binding ([3H]Pyrilamine); settings: for inhibition at 3 µM: compound concentration 3 μM; for inhibition at 10 µM: compound concentration 10 μM
T1 construct: expressed in transfected cells; host or cells: CHO cells
In short: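 Binding to the human recombinant histamine H1 receptor, expressed in CHO cells, was measured in a modified Tris-HCl buffer (50 mM Tris-HCl, pH 7.4, 2 mM MgCl2, 100 mM NaCl, 250 mM Sucrose). Compounds were incubated with 1.2 nM [3H]Pyrilamine for 180 minutes at 25° C, with 1 μM pyrilamine defining non-specific binding. After filtration and washing, filter counts gave percent inhibition of specific binding.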

[2] = target: T2, human recombinant adrenergic α2A receptor (Homo sapiens, UniProt P08913); assay: Adrenergic α2A radioligand binding ([3H]MK-912)
T2 construct: expressed in transfected cells; host or cells: insect Sf9 cells
T2 sequence (P08913 1-465): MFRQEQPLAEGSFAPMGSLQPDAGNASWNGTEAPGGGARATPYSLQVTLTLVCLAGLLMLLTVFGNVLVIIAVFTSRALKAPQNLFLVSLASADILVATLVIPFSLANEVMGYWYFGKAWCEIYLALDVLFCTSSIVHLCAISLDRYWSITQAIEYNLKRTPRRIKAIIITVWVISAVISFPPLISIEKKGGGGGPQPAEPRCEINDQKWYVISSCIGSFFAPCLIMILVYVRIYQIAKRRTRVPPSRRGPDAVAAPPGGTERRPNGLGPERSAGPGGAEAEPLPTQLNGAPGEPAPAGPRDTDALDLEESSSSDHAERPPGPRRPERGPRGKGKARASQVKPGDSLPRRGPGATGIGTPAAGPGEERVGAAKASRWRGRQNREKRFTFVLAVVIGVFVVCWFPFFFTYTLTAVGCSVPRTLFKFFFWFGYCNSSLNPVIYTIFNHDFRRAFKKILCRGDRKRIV
Description: To evaluate in radioligand binding assays the activity of compounds of the invention, human recombinant adrenergic α2A receptor expressed in insect Sf9 cells (Uhlen S et al. J Pharmacol Exp Ther. 271:1558, 1994) in a modified Tris-HCl buffer (50 mM Tris-HCl, pH 7.4, 12.5 mM MgCl2, 2 mM EDTA) was used. Compounds of invention were incubated with 1 nM [^3H]MK-912 for 60 minutes at 25° C. MK912 is (2S-trans)-1,3,4,5′,6,6′,7,12b-octahydro-1′,3′-dimethyl-spiro[2H-benzofuro[2,3-a]quinolizine-2,4′(1′H)-pyrimidin]-2′(3′H)-one hydrochloride Non-specific binding was estimated in the presence of 10 μM WB-4101 (2-(2,6-Dimethoxyphenoxyethyl)aminomethyl-1,4-benzodioxane hydrochloride). Receptor proteins were filtered and washed, the filters were then counted to determine [^3H]MK-912 specifically bound. Compounds were screened at 1 μM or lower, using 1% DMSO as vehicle. Biochemical assay results are presented as the percent inhibition of specific binding in Table 4.

[3] = target: T3, human recombinant serotonin (5-Hydroxytryptamine) 5-HT2A receptor (Homo sapiens, UniProt P28223); assay: Serotonin 5-HT2A radioligand binding ([3H]Ketanserin); settings: for inhibition at 0.003 µM: compound concentration 3 nM; for inhibition at 0.01 µM: compound concentration 10 nM; for inhibition at 0.03 µM: compound concentration 0.03 μM; for inhibition at 0.1 µM: compound concentration 0.1 μM; for inhibition at 0.3 µM: compound concentration 0.3 μM
T3 construct: expressed in transfected cells; host or cells: CHO-K1 cells
In short: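 Membranes from CHO-K1 cells expressing the receptor, in 50 mM Tris-HCl pH 7.4, incubated 60 min at 25° C with 0.5 nM [3H]Ketanserin; 1 μM Mianserin defines non-specific binding. Filtration and counting; values are % inhibition of specific binding at 1 μM or lower, 1% DMSO.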

[4] = target: T4, human recombinant serotonin (5-Hydroxytryptamine) 5-HT6 receptor (Homo sapiens, UniProt P50406); assay: Serotonin 5-HT6 radioligand binding ([3H]LSD); settings: for inhibition at 0.003 µM: compound concentration 3 nM; for inhibition at 0.01 µM: compound concentration 10 nM; for inhibition at 0.03 µM: compound concentration 0.03 μM; for inhibition at 0.1 µM: compound concentration 0.1 μM; for inhibition at 0.3 µM: compound concentration 0.3 μM
T4 construct: expressed in transfected cells; host or cells: human HeLa cells
In short: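 Human 5-HT6 receptor expressed in HeLa cells, in Tris-HCl pH 7.4 with 150 mM NaCl, ascorbic acid and BSA. Compounds at 1 μM or lower (1% DMSO) incubated 120 min at 37° C with 1.5 nM [3H]LSD. Non-specific binding defined with serotonin; filter counting gives % inhibition of specific binding.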

[5] = 1 μM, read-out: Binding data (Percentage Inhibition) Histamine Binding (1 μM) H1
[6] = 1 h, read-out: Percent Inhibition of ligand binding Adrenergic (1 μM ligand conc.) α2A
[7] = 1 h, read-out: Percent Inhibition of ligand binding Serotonin (1 μM ligand concentration) 5-HT2A
[8] = 2 h, read-out: Percent Inhibition of ligand binding Serotonin (1 μM ligand concentration) 5-HT6
[9] = compound concentration 1 μM, read-out: Percentage inhibition of ligand binding to H1 receptor
[10] = read-out: Percentage inhibition of ligand binding to H1 receptor
[11] = compound concentration 1 μM, read-out: Percentage inhibition of ligand binding to Adrenergic α2A receptor
[12] = read-out: Percentage inhibition of ligand binding to 5-HT2A receptor
[13] = compound concentration 1 μM, read-out: Percentage inhibition of ligand binding to 5-HT2A receptor
[14] = read-out: Percentage inhibition of ligand binding to 5-HT6 receptor
[15] = compound concentration 1 μM, read-out: Percentage inhibition of ligand binding to 5-HT6 receptor

T4 sequence (P50406 whole entry): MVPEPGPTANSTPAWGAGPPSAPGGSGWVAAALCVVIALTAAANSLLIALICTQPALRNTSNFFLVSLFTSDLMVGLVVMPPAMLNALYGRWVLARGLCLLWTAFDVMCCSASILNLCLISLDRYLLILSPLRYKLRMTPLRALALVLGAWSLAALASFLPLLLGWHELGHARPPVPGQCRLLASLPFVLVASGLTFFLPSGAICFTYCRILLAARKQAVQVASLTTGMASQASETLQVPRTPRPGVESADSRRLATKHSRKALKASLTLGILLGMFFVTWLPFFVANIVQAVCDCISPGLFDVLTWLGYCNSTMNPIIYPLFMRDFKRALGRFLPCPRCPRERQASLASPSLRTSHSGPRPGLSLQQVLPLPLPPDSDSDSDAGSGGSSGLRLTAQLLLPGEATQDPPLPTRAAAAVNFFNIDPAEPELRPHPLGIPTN
T3 sequence (P28223 whole entry): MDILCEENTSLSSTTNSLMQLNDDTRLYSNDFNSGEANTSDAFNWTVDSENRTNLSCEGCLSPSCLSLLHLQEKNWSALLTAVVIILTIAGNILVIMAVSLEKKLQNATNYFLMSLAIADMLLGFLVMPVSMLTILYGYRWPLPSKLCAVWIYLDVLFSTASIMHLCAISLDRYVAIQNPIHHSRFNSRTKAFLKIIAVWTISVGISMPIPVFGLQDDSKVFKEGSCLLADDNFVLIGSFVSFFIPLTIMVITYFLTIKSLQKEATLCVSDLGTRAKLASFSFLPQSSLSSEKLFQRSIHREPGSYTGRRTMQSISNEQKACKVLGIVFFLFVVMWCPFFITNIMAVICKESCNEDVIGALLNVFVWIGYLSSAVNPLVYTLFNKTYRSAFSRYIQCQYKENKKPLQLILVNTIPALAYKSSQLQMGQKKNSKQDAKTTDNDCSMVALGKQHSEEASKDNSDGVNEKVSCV
T1 sequence (P35367 whole entry): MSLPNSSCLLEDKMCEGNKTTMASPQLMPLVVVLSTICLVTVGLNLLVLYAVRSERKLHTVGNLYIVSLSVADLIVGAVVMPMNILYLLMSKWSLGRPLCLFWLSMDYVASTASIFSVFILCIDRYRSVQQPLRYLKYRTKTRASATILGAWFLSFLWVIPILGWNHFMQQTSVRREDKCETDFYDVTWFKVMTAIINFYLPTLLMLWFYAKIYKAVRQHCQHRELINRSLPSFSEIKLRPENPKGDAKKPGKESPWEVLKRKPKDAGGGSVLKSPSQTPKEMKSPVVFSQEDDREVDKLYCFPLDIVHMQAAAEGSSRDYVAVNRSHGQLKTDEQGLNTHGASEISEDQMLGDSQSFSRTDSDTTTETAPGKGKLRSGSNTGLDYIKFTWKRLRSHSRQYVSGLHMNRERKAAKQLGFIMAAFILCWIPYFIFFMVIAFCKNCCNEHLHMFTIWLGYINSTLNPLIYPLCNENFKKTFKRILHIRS

| Structure (SMILES) | inhibition at 1 µM [1, 5] | inhibition at 1 µM [2, 6] | inhibition at 1 µM [3, 7] | inhibition at 1 µM [4, 8] | other results |
| --- | --- | --- | --- | --- | --- |
| Cc1ccc(CCCn2c3c(c4cc(Cl)ccc42)CCN(C)C3)cn1 [Compound 56, 6-chloro-2-methyl-9-(3-(6-methylpyridin-3-yl)propyl)-2,3,4,9-tetrahydro-1H-pyrido[3,4-b]indole] | 30% | 7% | 12% | -3% | – |
| Cc1ccc2c(c1)c1c(n2CC(=O)N2CCCCC2)CN(C)CC1 [Compound 57, 2-(2,6-dimethyl-3,4-dihydro-1H-pyrido[3,4-b]indol-9(2H)-yl)-1-(piperidin-1-yl)ethanone] | 0% | 4% | 28% | 6% | – |
| CN1CCc2c(n(CC(=O)N3CCCCC3)c3ccc(Cl)cc23)C1 [Compound 58, 2-(6-chloro-2-methyl-3,4-dihydro-1H-pyrido[3,4-b]indol-9(2H)-yl)-1-(piperidin-1-yl)ethanone] | 2% | -12% | -10% | -7% | – |
| CN1CCc2c(n(CC(O)c3ccccc3F)c3ccc(Cl)cc23)C1 (centres unmarked) [Compound 59, 2-(6-chloro-2-methyl-3,4-dihydro-1H-pyrido[3,4-b]indol-9(2H)-yl)-1-(2-fluorophenyl)ethanol] | 13% | 91% | 80% | 60% | – |
| Cc1ccc2c(c1)c1c(n2CC(O)c2ccccc2F)CN(C)CC1 (centres unmarked) [Compound 60, 2-(2,6-dimethyl-3,4-dihydro-1H-pyrido[3,4-b]indol-9(2H)-yl)-1-(2-fluorophenyl)ethanol] | 19% | 79% | 74% | 62% | – |
| Cc1ccc2c(c1)c1c(n2CC(C)(O)c2ccc(F)cc2)CN(C)CC1 (centres unmarked) [Compound 61, 1-(2,6-dimethyl-3,4-dihydro-1H-pyrido[3,4-b]indol-9(2H)-yl)-2-(4-fluorophenyl)propan-2-ol] | 49% | 83% | 86% | 61% | – |
| CN1CCc2c(n(CC(C)(O)c3ccc(F)cc3)c3ccc(Cl)cc23)C1 (centres unmarked) [Compound 62, 1-(6-chloro-2-methyl-3,4-dihydro-1H-pyrido[3,4-b]indol-9(2H)-yl)-2-(4-fluorophenyl)propan-2-ol] | 48% | 90% | 88% | 77% | – |
| COc1ccc(C(O)Cn2c3c(c4cc(C)ccc42)CCN(C)C3)cc1OC (centres unmarked) [Compound 66] | 19% | 55% | 51% | 5% | – |
| Cc1ccc2c(c1)c1c(n2CC(O)c2ccccc2)CN(C)CC1 (centres unmarked) [Compound 67] | 35% | 85% | 77% | 51% | – |
| COc1ccc(C(O)Cn2c3c(c4cc(Cl)ccc42)CCN(C)C3)cc1OC (centres unmarked) [Compound 70] | 39% | 81% | 56% | 21% | – |
| CN1CCc2c(n(CC(O)c3ccccc3)c3ccc(Cl)cc23)C1 (centres unmarked) [Compound 71] | 54% | 88% | 87% | 66% | – |
| Cc1ccc(C(O)Cn2c3c(c4cc(C)ccc42)CCN(C)C3)cc1 (centres unmarked) [Compound 72] | 55% | 93% | 96% | 61% | – |
| CCC1c2c(c3cc(Cl)ccc3n2CCc2ccc(F)cc2)CCN1C (centres unmarked) [Compound 78] | 71% | 93% | 80% | 48% | – |
| CCC1c2c(c3cc(Cl)ccc3n2CC(C)(O)c2ccc(F)cc2)CCN1C (centres unmarked) [Compound 79] | 50% | 92% | 62% | 27% | – |
| Cc1ccc(CCn2c3c(c4cc(Cl)ccc42)CCN(C)C3C)cn1 (centres unmarked) [Compound 80] | 66% | 82% | 56% | 23% | – |
| CC1c2c(c3cc(Cl)ccc3n2CCc2ccc(F)cc2)CCN1C (centres unmarked) [Compound 81] | 80% | 92% | 93% | 96% | – |
| C/C(=C\n1c2c(c3cc(Cl)ccc31)CCN(C)C2)c1ccc(F)cc1 [Compound 90, (E)-6-chloro-9-(2-(4-fluorophenyl)prop-1-enyl)-2-methyl-2,3,4,9-tetrahydro-1H-pyrido[3,4-b]indole] | 29% | 88% | 97% | 98% | inhibition at 1 µM [1, 9]: 48%; inhibition at 3 µM [1, 10]: 76%; inhibition at 10 µM [1, 10]: 94%; inhibition at 1 µM [2, 11]: 88%; inhibition at 0.003 µM [3, 12]: 1%; inhibition at 0.01 µM [3, 12]: 9%; inhibition at 0.03 µM [3, 12]: 31%; inhibition at 0.1 µM [3, 12]: 64%; inhibition at 0.3 µM [3, 12]: 87%; inhibition at 1 µM [3, 13]: 97%; inhibition at 0.003 µM [4, 14]: 16%; inhibition at 0.01 µM [4, 14]: 32%; inhibition at 0.03 µM [4, 14]: 58%; inhibition at 0.1 µM [4, 14]: 81%; inhibition at 0.3 µM [4, 14]: 94%; inhibition at 1 µM [4, 15]: 98% |
| C/C(=C\n1c2c(c3cc(C)ccc31)CCN(C)C2)c1ccc(F)cc1 [Compound 91, (E)-9-(2-(4-fluorophenyl)prop-1-enyl)-2,6-dimethyl-2,3,4,9-tetrahydro-1H-pyrido[3,4-b]indole] | 28% | 95% | 97% | 100% | inhibition at 1 µM [1, 9]: 42%; inhibition at 3 µM [1, 10]: 75%; inhibition at 10 µM [1, 10]: 95%; inhibition at 1 µM [2, 11]: 95%; inhibition at 0.003 µM [3, 12]: 2%; inhibition at 0.01 µM [3, 12]: 21%; inhibition at 0.03 µM [3, 12]: 54%; inhibition at 0.1 µM [3, 12]: 79%; inhibition at 0.3 µM [3, 12]: 92%; inhibition at 1 µM [3, 13]: 97%; inhibition at 0.003 µM [4, 14]: 15%; inhibition at 0.01 µM [4, 14]: 42%; inhibition at 0.03 µM [4, 14]: 68%; inhibition at 0.1 µM [4, 14]: 84%; inhibition at 0.3 µM [4, 14]: 96%; inhibition at 1 µM [4, 15]: 100% |
